Source: US20250034523A1, “METHODS OF GENERATING HUMAN COCHLEAR HAIR CELLS” (THE TRUSTEES OF INDIANA UNIVERSITY, priority 2021, published 2025)

How the values were obtained:
[1] = system: PAX2-2A-nGFP/POU4F3-2A-ntdTomato hESC-derived aggregates; test: derivation of POU4F3+ hair cells (POU4F3-ntdTomato reporter); format: cell-based, human
Description: To build a PAX2-2A-nGFP/POU4F3-2A-ntdTomato multiplex reporter cell line, the POU4F3-2A-ntdTomato knockin CRISPR was performed on the PAX2-2A-nGFP genetic background. The POU4F3-2A-tdTomato-nls-bGH polyA-frt-PGK-Puro-pA-frt donor plasmid was constructed by connecting the following DNA fragments via Gibson assembly: Two 1 kb homology arms flanking the POU4F3 stop codon amplified from WA25 genomic DNA, 2A-tdTomato gBlock DNA, nls-stop-bGH pA gBlock DNA, frt-PGK-Puro-frt gBlock DNA (IDT), and a linearized pUC19 backbone. The completed donor plasmid was transfected into the PAX2-2A-nGFP parental hES cell line along with a ribonucleoprotein complex composed of a synthetic sgRNA (5′-[…]-3′ (SEQ ID NO: 30)) (Synthego) targeting the POU4F3 stop codon locus, and a high fidelity Cas9 protein (HiFi Cas9 v3, IDT). The transfection was also performed with a 4D Nucleofector (Lonza) using the P3 Primary Cell 4D-Nucleofector X kit and Program CB-150. After nucleofection, cells were plated in E8fn medium containing 1× RevitaCell (Thermo Fisher) and 1 μM of Scr7 (Xcessbio). 0.5 μg/mL puromycin selection was performed for 9 days starting from 48 h post-nucleofection. The frt-flanked PGK-Puro cassette was removed via FLPo transfection (Addgene #13793). Clonal cell line isolation and genotyping procedures were the same as PAX2-2A-nGFP CRISPR. […]

[2] = system: hair cells in hESC-derived inner ear organoids; test: PRESTIN immunohistochemistry of hair cells in hESC-derived inner ear organoids; format: cell-based, human; conditions: for PRESTIN expression / number of Prestin positive HCs: 250 ng/ml thyroxine, about day 50 to about day 100
Description: PAX2-2A-nGFP/POU4F3-2A-ntdTomat hESCs (passages 22-50) were maintained and passaged in Essential 8 Flex Medium (Thermo Fisher, A2858501) supplemented with 100 μg/ml Normocin (E8fn) on recombinant human Vitronectin-N(Thermo Fisher, A14700)-coated 6-well plates. Human inner ear organoids were derived from hESCs based on the inventors' previous protocol 8.10 with major modifications. Briefly, hESCs were dissociated with StemPro Accutase (Thermo Fisher, A1110501) and distributed at 3500 cells per well onto low-adhesion 96-well U-bottom plates in 100 μL E8fn containing 20 μM Y-27632 (Stemgent, 04-0012-02) and forcibly aggregated at 120 g for 5 minutes. 100 μL of E8fn was added to each well after >4 h of incubation. Induction of non-neural epithelium occurred following 48 h of aggregation, marking differentiation day 0, as follows: aggregates were washed extensively in DMEM:F12 with HEPES buffer (DFH) (Thermo Fisher, 11320033) and transferred to new 96-well U-bottom plates in 100 μL of E6 medium (Thermo Fisher, A1516401) with Normocin (E6n) containing 4 ng mL^−1 FGF-2 (StemCell Technologies, 780003), 10 μM SB-431542 (Stemgent, 04-0010-05), and 2% growth factor reduced (GFR) Matrigel (Corning, 354230). On day 3 of differentiation, 25 μL of E6n containing 50 ng/ml FGF-2 and 200 nM LDN-193189 (Stemgent, 04-0074-02) was added to each well. Culture medium was changed on days 7 and 9 with Eon containing 3 μM CHIR 99021 (Reprocell, 04-0004-10), 200 nM LDN, and 50 ng/mL FGF-2. On day 11, aggregates were washed and transferred to a Nunc Delta surface 6-well culture dish in Organoid Maturation Medium (OMM) containing 1% GFR Matrigel and 3 μM CHIR99021. OMM consists of a 50:50 mixture of Advanced DMEM:F12 (Thermo Fisher, 12634028) and Neurobasal Medium (Thermo Fisher, 21103049) supplemented with 0.5×N2 Supplement (Thermo Fisher, 17502048), 0.5×B27 minus Vitamin A (Thermo Fisher, 12587010), 1× GlutaMAX (Thermo Fisher, 35050061), 0.1 mM β-Mercaptoethanol (Thermo Fisher, 21985023), and Normocin. Control cultures were maintained in OMM+3 μM CHIR99021 until day 18 with media changes on days 13 and 15, then OMM for the remainder of the culture. Treatment cultures were supplemented with 1 μM Purmorphamine (Stemgent, 04-0009) from days 13-22, and IWP-2 (Tocris, 3533) from days 18-22, with media changes on days 15,18, and 20, then maintained in OMM for the remainder of the culture.
Aggregates were fixed with 4% paraformaldehyde for 30 min at room temperature or at 4° C. overnight. […]
Treated and control samples were processed for immunostaining simultaneously using identical reagents and protocols for each comparison. […] Raw images were analysed using Nikon GI3 suite or exported in TIFF format and analysed using ImageJ. […]

**Q.** For Cl.Cl.O=S(=O)(NCCNCC=Cc1ccc(Br)cc1)c1cccc2cnccc12 [H89], which “efficacy in deriving POU4F3+ hair cells” value ([1]; 10 μM H89 alone or combined with PUR / PUR+IWP2, D102) is on record?
**A.** The value was “none of these treatments were efficacious”.

**Q.** What does the source list for N[C@@H](Cc1cc(I)c(Oc2cc(I)c(O)c(I)c2)c(I)c1)C(=O)O [T4, thyroxine]?
**A.** PRESTIN expression / number of Prestin positive HCs ([2]; listed as Thyroxine): increases; PRESTIN expression / number of Prestin positive HCs ([2]; listed as thyroxine): increased PRESTIN expression; SOX2 expression in HCs ([2]; T4 treated cochlear organoid cultures): downregulated; PRESTIN+HCs ([2]; cochlear organoid cultures, 250 ng/ml T4 from culture day 50 until D100, read at D100): ~80%

B1: BMP-4: recombinant bone morphogenic protein applied on day 0 (protein, UniProt P12644 293-408, looked up)
Bone morphogenetic protein 4: SPKHHSQRARKKNKNCRRHSLYVDFSDVGWNDWIVAPPGYQAFYCHGDCPFPLADHLNSTNHAIVQTLVNSVNSSIPKACCVPTELSAISMLYLDEYDKVVLKNYQEMVVEGCGCR
**Q.** With B1 as the molecule, how does the “proportion of POU4F3 cells” value ([1]; BMP-4 applied on day 0, read at D55) read?
**A.** Its value is “increases”.
